From US11109538B2, “Method for producing galanthamine by a plant and electrical stimulation device” (Industrial Technology Research Institute, priority 2017, dated 2021) come the findings set out here.

The test relates to Lycoris aurea. Kind of test: Galanthamine release of plants subjected to chemical inducer treatment (LC-MS of lyophilized medium). In kind it is in vivo. Conditions: for Amounts of galanthamine released into the medium: MS medium with 25 μM chemical inducer, whole plants of Lycoris aurea. The method, then:
MS mediums containing chemical inducers (chitin (CA), salicylic acid (SA) and methyl jasmonate (MJ)) (final concentration of the chemical inducer is 25 μM) were prepared. Since the chemical inducers could not be high-strength autoclaved, after the preparations of the chemical inducers at room temperature were completed, sterilization by filtration was performed on the chemical inducers in a laminar flow. In the blank group, the medium contained no agent.
Healthy plants of Lycoris aurea with leaves and root with a bulb diameter of 0.6-0.8 cm were selected and withered epidermis on the bulb thereof was removed. The plant mentioned above was placed in a test tube having MS medium containing a chemical inducer and cultured under an illumination of 3000-4000 Lux with illumination time 16 hours an dark time 8 hours at an ambient temperature of 25-27° C.
30 mL of medium was recovered on the Day 0, Day 3, Day 7, Day 14, Day 28 and Day 35 of the culturing. The recovered medium was lyophilized to form a powder. A liquid chromatography-mass spectrometry analysis was performed on the obtained powder to determine the content of galanthamine therein to investigate the effect of the chemical stimulation treatment mentioned above on the plant that produces galanthamine and releases it into the medium.

Regarding `CC/C=C\CC1C(=O)CCC1CC(=O)OC` (centres unmarked) [Methyl jasmonate, methyl jasmonate], the “Amounts of galanthamine released into the medium” value (“Amounts” below) came out at 0 ppm (Day 0 of culturing); 0.0153 ppm (Day 3 of culturing); 0.0312 ppm (Day 7 of culturing); 0.0066 ppm (Day 14 of culturing); 2.72 ppm (Day 28 of culturing); 0.9 ppm (Day 35 of culturing). In addition, where the note is “Table 2 and FIG. 7, 25 μM chemical inducer, Lycoris aurea”, the “Effect on production and release of galanthamine for the plant (comparison of chemical inducers)” value is listed as “best effect”.
For the molecule chitin, the “Amounts” value reads like this: (Day 0 of culturing) 0 ppm; (Day 3 of culturing) 0.0015 ppm; (Day 7 of culturing) 0.0001 ppm; (Day 14 of culturing) 0.74 ppm.
On to `O=C(O)c1ccccc1O` [Salicylic acid, salicylic acid], for which the “Amounts” value was 0 ppm (Day 0 of culturing); 0.0183 ppm (Day 3 of culturing); 0.0077 ppm (Day 7 of culturing); 0.0142 ppm (Day 14 of culturing); 0.36 ppm (Day 28 of culturing); 1.01 ppm (Day 35 of culturing).
